Laboratory results reported in PMC11727260, “Free Cholesterol‐Induced Liver Injury in Non‐Alcoholic Fatty Liver Disease: Mechanisms and a Therapeutic Intervention Using Dihydrotanshinone I” (Advanced Science, 2024).
Substitutions are numbered along the chain they refer to.

What was measured:
[1] = target: T1, peroxisome proliferator-activated receptor α (PPARα) (Homo sapiens, UniProt Q07869, T283A); experiment: microscale thermophoresis with purified recombinant EGFP-PPARα LBD T283A; format: binding
T1 construct: gene PPARA
T1 sequence (Q07869 200-468 T283A): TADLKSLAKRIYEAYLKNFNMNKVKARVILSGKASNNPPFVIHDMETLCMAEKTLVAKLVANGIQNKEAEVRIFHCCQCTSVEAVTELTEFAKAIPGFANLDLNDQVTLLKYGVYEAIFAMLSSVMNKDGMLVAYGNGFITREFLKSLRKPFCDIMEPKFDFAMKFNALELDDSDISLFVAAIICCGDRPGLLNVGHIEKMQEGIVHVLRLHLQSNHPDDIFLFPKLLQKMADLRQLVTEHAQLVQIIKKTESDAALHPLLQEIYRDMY

[2] = target: T2, peroxisome proliferator-activated receptor α (PPARα) (Homo sapiens, UniProt Q07869); experiment: microscale thermophoresis with purified recombinant EGFP-PPARα LBD; format: binding
T2 construct: gene PPARA
T2 sequence (Q07869 200-468): T1 sequence (Q07869 200-468 T283A) with A84T

Question: What does the source list for `Cc1cccc2c3c(ccc12)C1=C(C(=O)C3=O)[C@@H](C)CO1` [DhT, dihydrotanshinone I]?
Answer: Kd [1]: 32.9 ± 6.1 µM; Kd [2]: 1.66 ± 0.5 µM
